Molecules are shown by their SMILES.

In the test the target is T1, human V1a receptor (Homo sapiens, UniProt P37288).
T1 construct: expressed in transfected cells; host or cells: HEK293 cells, transiently transfected; membrane preparation
T1 sequence (P37288 whole entry): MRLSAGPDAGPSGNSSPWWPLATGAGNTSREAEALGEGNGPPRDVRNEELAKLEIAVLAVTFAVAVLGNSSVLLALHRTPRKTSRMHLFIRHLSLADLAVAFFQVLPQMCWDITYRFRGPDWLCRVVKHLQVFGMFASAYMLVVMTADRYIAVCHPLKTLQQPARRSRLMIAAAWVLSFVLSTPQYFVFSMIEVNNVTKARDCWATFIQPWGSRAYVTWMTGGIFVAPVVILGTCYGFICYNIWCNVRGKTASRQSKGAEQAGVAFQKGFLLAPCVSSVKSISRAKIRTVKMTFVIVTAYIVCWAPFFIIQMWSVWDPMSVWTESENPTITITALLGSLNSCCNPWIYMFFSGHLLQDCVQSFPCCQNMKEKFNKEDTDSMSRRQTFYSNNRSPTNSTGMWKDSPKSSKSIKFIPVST
Nature of the test: human V1a receptor binding (3H-Vasopressin SPA, membranes of transfected HEK293 cells). As to conditions: displacement of 3H-Vasopressin; Ki calculated from IC50 using the Cheng-Prussoff equation. As to the method:
The human V1a receptor was cloned by RT-PCR from total human liver RNA. The coding sequence was subcloned in an expression vector after sequencing to confirm the identity of the amplified sequence. […] Cell membranes were prepared from HEK293 cells transiently transfected with the expression vector and grown in 20 liter fermenters with the following protocol.
50 g of cells were resuspended in 30 ml freshly prepared ice cold Lysis buffer (50 mM HEPES, 1 mM EDTA, 10 mM MgCl2 adjusted to pH=7.4+complete cocktail of protease inhibitor (Roche Diagnostics)), homogenized with Polytron for 1 min, and sonicated on ice for 2×2 minutes at 80% intensity (Vibracell sonicator). The preparation was centrifuged 20 min at 500 g at 4° C., the pellet was discarded, and the supernatant centrifuged 1 hour at 43'000 g at 4° C. (19'000 rpm). The pellet was resuspended in 12.5 ml Lysis buffer+12.5 ml Sucrose 20% and homogenized using a Polytron for 1-2 min. The protein concentration was determined by the Bradford method and aliquots were stored at −80° C. until use. For binding studies, 60 mg Yttrium silicate SPA beads (Amersham) were mixed with an aliquot of membrane in binding buffer (50 mM Tris, 120 mM NaCl, 5 mM KCl, 2 mM CaCl2, 10 mM MgCl2) for 15 minutes with mixing. 50 ul of bead/membrane mixture was then added to each well of a 96 well plate, followed by 50 ul of 4 nM 3H-Vasopressin (American Radiolabeled Chemicals). For total binding measurement 100 ul of binding buffer were added to the respective wells, for non-specific binding 100 ul of 8.4 mM cold vasopressin were added, and for compound testing 100 ul of a serial dilution of each compound in 2% DMSO were added. The plate was incubated Ih at room temperature, centrifuged 1 min at 1000 g and counted on a Packard Top-Count. Non-specific binding counts were subtracted from each well and data was normalized to the maximum specific binding set at 100%. To calculate an IC 50, the curve was fitted using a non-linear regression model (XLfit) and the Ki was calculated using the Cheng-Prussoff equation.
As usually defined, the Ki is the equilibrium dissociation constant of an inhibitor or competing ligand from its target. `N#CCn1c(C(=O)N2CCC(n3c(=O)[nH]c4ccccc43)CC2)cc2cc(Cl)ccc21` [Example 45, {5-Chloro-2-[4-(2-oxo-2,3-dihydro-benzoimidazol-1-yl)-piperidine-1-carbonyl]-indol-1-yl}-acetonitrile]: the inhibition constant (Ki) was 32 nM.

`N#CCn1c(C(=O)N2CCC(n3c(=O)[nH]c4ccccc43)CC2)cc2cc(Br)ccc21` [Example 3, {5-Bromo-2-[4-(2-oxo-2,3-dihydro-benzoimidazol-1-yl)-piperidine-1-carbonyl]-indol-1-yl}-acetonitrile]: the Ki was 12 nM.

For `COc1ccc2[nH]c(C(=O)N3CCC(n4c(=O)[nH]c5ccccc54)CC3)c(NC(=O)c3ccccc3[N+](=O)[O-])c2c1` [Example 10, N-{5-Methoxy-2-[4-(2-oxo-2,3-dihydro-benzoimidazol-1-yl)-piperidine-1-carbonyl]-1H-indol-3-yl}-2-nitro-benzamide], the Ki was 20 nM.

On to `O=C(c1cc2cc(Cl)ccc2[nH]1)N1CCC(N2C(=O)Cc3ccccc32)CC1` [Example 47, 1-[1-(5-Chloro-1H-indole-2-carbonyl)-piperidin-4-yl]-1,3-dihydro-indol-2-one], for which the Ki was 64.6 nM.

On to `N#CCc1cc(Cl)cc2cc(C(=O)N3CCC(n4c(=O)[nH]c5ccccc54)CC3)[nH]c12` [Example 46, {5-Chloro-2-[4-(2-oxo-2,3-dihydro-benzoimidazol-1-yl)-piperidine-1-carbonyl]-1H-indol-7-yl}-acetonitrile], for which the Ki is 35.5 nM.

With `Cc1ccc2[nH]c(C(=O)N3CCC(n4c(=O)[nH]c5ccccc54)CC3)c(NC(=O)c3ccc(F)cc3)c2c1` [Example 11], the Ki is 39.8 nM.

As for `CCOC(=O)Cc1c(C(=O)N2CCC(n3c(=O)[nH]c4ccccc43)CC2)[nH]c2ccccc12` [Example 14, {2-[4-(2-Oxo-2,3-dihydro-benzoimidazol-1-yl)-piperidine-1-carbonyl]-1H-indol-3-yl}-acetic acid ethyl ester], the inhibitory constant (Ki) was 41.7 nM.

Turning to `O=C(c1cc2cc(Cl)ccc2[nH]1)N1CCC(n2nnc3ccccc32)CC1` [Example 48, (4-Benzotriazol-1-yl-piperidin-1-yl)-(5-chloro-1H-indol-2-yl)-methanone], the Ki is 385 nM.

With `O=C(c1cc2cccc(OCc3ccccc3)c2[nH]1)N1CCC(n2c(=O)[nH]c3ccccc32)CC1` [Example 37, 1-[1-(7-Benzyloxy-1H-indole-2-carbonyl)-piperidin-4-yl]-1,3-dihydro-benzoimidazol-2-one], the inhibition constant (Ki) was 21.9 nM.

The record behind these values is US20080139617A1 (priority 2006, published 2008).
